Read-outs that look alike come from different tables or passages of the source. Where a SMILES comes first, the peptide text is derived from it. [ ]: non-standard residue; d: D form. Dip = N[C@H](C(=O)O)C(c1ccccc1)c1ccccc1; Orn = NCCC[C@H](N)C(=O)O
Legend:
[1] = tested on: human red blood cells (RBC); type: cell-based; details: red cells of human, 1 h
Method: The hemolytic activity of the peptides was determined using freshly isolated human red blood cells (RBC) as previously described. Briefly, venous blood was collected, transferred to a tube containing heparin (10 U/ml) and centrifuged at 1500 rpm for 10 minutes in order to isolate the red blood cells. The red blood cells were washed three times with PBS (35 mM phosphate buffer with 150 mM NaCl, pH 7.4) by centrifugation at 1500 rpm for 10 minutes, and adjusted to 10% hematocrit with PBS. Peptide solutions were added to yield a final concentration range of the peptide from 1000 μg/ml to 1 μg/ml and a red blood cell concentration of 1%. The resulting suspension was incubated with agitation for 1 hour at 37°C. After incubation the suspension was centrifuged at 4000 rpm for 5 minutes, and the released hemoglobin were monitored by measuring the absorbance of the supernatant at 405 nm on a microplate reader (VERSAmax™ Molecular Devices, CA). PBS and 1% Triton X-100 were used as negative and positive controls, respectively. Peptide concentrations corresponding to 50% hemolysis (EC50) were determined from dose-response curves.

[2] = MTT viability assay, MRC-5 fibroblast-like cells; type: cell-based; details: human
Method: (§1) The colorimetric MTT viability assay was used to investigate the cytotoxic effect of the peptides. The HT-29, MT-1, Kelly, HUVEC and MRC-5 cells were seeded at a concentration of 2 × 10^5 cells/ml, 1.5 × 10^5 cells/ml, 2 × 10^5 cells/ml, 1 × 10^5 cells/ml and 1 × 10^5 cells/ml in a volume of 0.1 ml in 96-well plates, respectively. CHO-K1 and pgsA-745 cells were seeded at a concentration of 1 × 10^5 cells/ml. The cells were allowed to adhere overnight in complete medium. Before adding different concentrations of the peptides (10-500 μg/ml) to the cells, the culture medium was removed and the cells were washed twice in serum-free culture medium. The non-adherent lymphoma cell lines were seeded at a density of 4 × 10^5 cells/ml using serum-free medium. After incubating the cells with peptides for 30 minutes at 37°C, 0.5 mg MTT-solution was added to each well and the incubation was continued for 2 hours. A volume of 70 μl or 130 μl per well was removed from the non-adherent and adherent cells, respectively. In order to dissolve the formazan crystals, 100 μl of 0.04 M HCl in isopropanol was added and the plates were shaken for 1 hour on a Thermolyne Roto Mix (Dubuque, IA) at room temperature. The optical density was measured on a microplate reader (VERSAmax™ Molecular Devices, CA). Cells treated with 1% Triton X-100 in serum-free medium was used as positive control for 100% cell death, whereas cells in serum free medium were used as negative control. Cell survival was determined from the ΔA590 nm relative to the negative control (100% living cells) and expressed as 50% inhibitory concentration (IC50).

[3] = tested on: MRC-5; assay: MTT viability assay, MRC-5 fibroblast-like cells; type: cell-based; details: 2 h
Method: as §1

[4] = tested on: CHO-K1 cells; type: cell-based, Chinese hamster
Method: as §1
In order to investigate whether soluble CS or HS would interfere with the cytotoxic activity, the peptides were added to cultures of CHO-K1 cells together with exogenous CS and HS. […] The cytotoxic activity of LTX-318 was not inhibited in the presence of soluble CS or HS (Figure 5c).

[5] = tested on: CHO-K1; type: cell-based, Chinese hamster; details: 2 h
Method: as §1

[6] = tested on: pgsA-745; type: cell-based, Chinese hamster; details: for IC50: 2 h
Method: as §1

[7] = tested on: HUVEC; type: cell-based, human; details: 2 h
Method: as §1

[8] = tested on: KMS-5; type: cell-based; details: 2 h
Method: as §1

[9] = tested on: U-266; type: cell-based; details: 2 h
Method: as §1

[10] = tested on: KMM-1; type: cell-based; details: 2 h
Method: as §1

[11] = tested on: HT-29; type: cell-based; details: 2 h
Method: as §1

[12] = tested on: Kelly; type: cell-based; details: for IC50: 2 h
Method: as §1

[13] = tested on: Sudhl-4; type: cell-based; details: 2 h
Method: as §1

[14] = tested on: Ramos; type: cell-based; details: 2 h
Method: as §1

[15] = tested on: lymphoma cells; type: cell-based; details: 2 h
Method: as §1

[16] = tested on: MT-1; type: cell-based; details: 2 h
Method: as §1

[17] = Affinity chromatography on HS-Sepharose; type: binding; details: NaCl needed to elute peptide from HS-Sepharose; mean of four experiments
Method: (§2) Two different Sepharose affinity columns were prepared, using HS and CS as ligands. The ligands were mixed with swollen CNBr-activated Sepharose 4B. Non-reactive groups were blocked with 0.1 M Tris-HCl, pH 8.0 and the gel was washed before packing. The peptides were dissolved in 5 mM phosphate-buffer, pH 7.4 at a concentration of 0.5 mg/ml, and 50 μl samples were applied. A gradient of NaCl was used to elute the different peptides from the columns using a GradiFrac from Amersham Pharmacia Biotech (Uppsala, Sweden) at a flow rate of 1.0 ml/min. The peptides were detected using a monitor UV-1 from Amershan Pharmacia Biotech (Uppsala, Sweden).

[18] = tested on: carcinoma cell lines HT-29 and MT-1; assay: MTT viability assay, carcinoma cell lines HT-29 and MT-1; type: cell-based; details: selectivity versus HUVEC and MRC-5
Method: as §1, with “Cells treated with 1% Triton X-100 in serum-free medium was used as positive control for 100% cell death, whereas cells in serum free medium were used as negative control. Cell survival was determined from the ΔA590 nm relative to the negative control (100% living cells) and expressed as 50% inhibitory concentration (IC50).” left out

[19] = tested on: tumor; design: method as in PMID 20422410; details: cited from earlier work
[20] = Affinity chromatography on CS-Sepharose; type: binding; details: NaCl needed to elute peptide from CS-Sepharose; mean of four experiments
Method: as §2

[21] = tested on: human red blood cells (RBC); design: method as in Eliassen et al. [69]; details: hemolysis; ref Eliassen et al. [69]; cited from earlier work

| IC50 [1] [µM] | IC50 [6] [µM] | IC50 [8] [µM] | IC50 [9] [µM] | IC50 [10] [µM] | IC50 [11] [µM] | IC50 [12] [µM] | IC50 [13] [µM] | IC50 [14] [µM] | IC50 [15] [µM] | IC50 [16] [µM] | SMILES | IC50 at 30 min [2] [µM] | IC50 [5] [µM] | IC50 [7] [µM] | inhibitory effect of soluble CS and HS on cytotoxic activity [4] | inhibitory effect of soluble HS on cytotoxic activity compared to CS [4] | Elution concentration from HS [17] [mM NaCl] | Elution concentration from CS [20] [mM NaCl] | other results |
| --- | --- | --- | --- | --- | --- | --- | --- | --- | --- | --- | --- | --- | --- | --- | --- | --- | --- | --- | --- |
| > 695 | 176 ± 3 | 73 ± 5 | 106 ± 17 | 111 ± 1 | 248 ± 5 | 78 ± 7 | 110 ± 5 | 82 ± 11 | 73 to 106 | 216 ± 36 | NCCC[C@H](NC(=O)[C@H](Cc1c[nH]c2ccccc12)NC(=O)[C@H](Cc1c[nH]c2ccccc12)NC(=O)[C@H](CCCN)NC(=O)[C@H](CCCN)NC(=O)[C@@H](NC(=O)[C@H](Cc1c[nH]c2ccccc12)NC(=O)[C@H](CCCN)NC(=O)[C@@H](N)CCCN)C(c1ccccc1)c1ccccc1)C(N)=O [LTX-318, OOWDipOOWWO-NH2] (H-[Orn][Orn]W[Dip][Orn][Orn]WW[Orn]-NH2) | > 347 | 145 ± 6 | > 347 |  |  |  |  | IC50 against fibroblast cells (no IC50 value at the highest concentration tested) [3]: > 500 µg/mL; cytotoxic activity in the presence of soluble CS or HS [4]: not inhibited; IC50 against endothelial cells (no IC50 value at the highest concentration tested) [7]: > 500 µg/mL |
| > 695 | 22 ± 3 | 10 ± 1.5 | 13 ± 1.5 | 17 ± 2 | 38 ± 3 | 14 ± 1 | 23 ± 2 | 10 ± 1.7 | 10 to 23 | 31 ± 3 | NCCCC[C@H](NC(=O)[C@@H](NC(=O)[C@H](Cc1c[nH]c2ccccc12)NC(=O)[C@H](CCCCN)NC(=O)[C@H](CCCCN)NC(=O)[C@H](Cc1c[nH]c2ccccc12)NC(=O)[C@H](Cc1c[nH]c2ccccc12)NC(=O)[C@H](CCCCN)NC(=O)[C@@H](N)CCCCN)C(c1ccccc1)c1ccccc1)C(N)=O [LTX-315, KKWWKKWDipK-NH2] (H-KKWWKKW[Dip]K-NH2) | 41 ± 3 | 22 ± 5 | 28 ± 1 | only a negligible inhibitory effect | much higher inhibitory effect |  |  | EC50 (50% hemolysis) [1]: > 1000 µg/mL |
| > 695 | 54 ± 2 | 31 | 36 ± 6 | 40 ± 6 | 75 ± 5 | 28 | 46 ± 6 | 30 ± 2 | 31 to 46 | 73 ± 2 | NCCCC[C@H](NC(=O)[C@H](Cc1c[nH]c2ccccc12)NC(=O)[C@H](CCCCN)NC(=O)[C@H](CCCCN)NC(=O)[C@@H](NC(=O)[C@H](Cc1c[nH]c2ccccc12)NC(=O)[C@H](CCCCN)NC(=O)[C@H](CCCCN)NC(=O)[C@@H](N)Cc1c[nH]c2ccccc12)C(c1ccccc1)c1ccccc1)C(N)=O [LTX-302, WKKWDipKKWK-NH2] (H-WKKW[Dip]KKWK-NH2; N-terminus assumed) | 126 ± 11 | 42 ± 7 | 123 ± 9 | only a negligible inhibitory effect | much higher inhibitory effect | 330 ± 9 | 187 ± 13 | Ratio (IC50) pgsA-745/CHO-K1 [6]: 1.28; fold higher activity against carcinoma cell lines in comparison to endothelial and fibroblast cells [18]: ~ 2 fold; tumor response after intratumoral injection [19]: complete regression of the tumor; fold higher activity against neuroblastoma cell line in comparison to endothelial and fibroblast cells ([12]; selectivity versus HUVEC and MRC-5): ~ 4.5 fold |
|  |  |  |  |  |  |  |  |  |  |  | CC[C@H](C)[C@@H]1NC(=O)[C@H](CO)NC(=O)[C@@H]2CCCN2C(=O)[C@H](C)NC(=O)CNC(=O)[C@H](CC(C)C)NC(=O)[C@H](CCCCN)NC(=O)[C@H](CCCCN)NC(=O)[C@H](CCSC)NC(=O)[C@H](CCCNC(=N)N)NC(=O)[C@H](Cc2c[nH]c3ccccc23)NC(=O)[C@H](CCC(N)=O)NC(=O)[C@H](Cc2c[nH]c3ccccc23)NC(=O)[C@H](CCCNC(=N)N)NC(=O)[C@H](CCCNC(=N)N)NC(=O)[C@@H](NC(=O)[C@H](CCCCN)NC(=O)[C@@H](N)Cc2ccccc2)CSSC[C@@H](C(=O)N[C@H](C(=O)N[C@@H](CCCNC(=N)N)C(=O)N[C@@H](CCCNC(=N)N)C(=O)N[C@@H](C)C(=O)N[C@@H](Cc2ccccc2)C(=O)O)C(C)C)NC(=O)[C@H]([C@@H](C)O)NC1=O [LfcinB, bovine lactoferricin, reference compound] |  |  |  |  |  | 417 ± 4 | 130 ± 9 | IC50 at 30 min ([2]; MTT, 30 min incubation, serum-free, read-out: MRC-5 IC50): > 160 µM; IC50 [21]: > 500 µM |
